Laboratory results published in paper PMC10451623 (Antioxidants, 2023).

Columns and labels:
human PPARα = target: T1, human PPARα (Homo sapiens, UniProt Q07869); experiment: Transactivation assay (GAL4–hPPARα-LBD chimera, luciferase reporter, COS-7 cells); type: cell-based; conditions: for Emax: 100% = 1 µM GW7647, read-out: Efficacy, PPARα transactivation (% of the maximal response); for EC50: GAL4–hPPARα-LBD
T1 construct: expressed in transfected cells; host or cells: COS-7
T1 sequence (Q07869 239-466 limits assumed): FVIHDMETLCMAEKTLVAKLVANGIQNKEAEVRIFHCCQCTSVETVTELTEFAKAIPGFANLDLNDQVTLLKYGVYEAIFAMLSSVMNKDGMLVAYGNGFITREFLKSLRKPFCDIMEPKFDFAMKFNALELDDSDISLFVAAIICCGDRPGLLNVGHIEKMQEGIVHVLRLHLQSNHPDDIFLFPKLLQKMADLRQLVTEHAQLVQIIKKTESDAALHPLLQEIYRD
Description: (§1) The pSG5-GAL–hPPARα/δ/γ plasmids express fusion proteins comprising the yeast transcription factor GAL4 DNA-binding domain and each of the human PPARα/δ/γ-LBDs. The MH100(UAS)×4-tk-Luc plasmid contains four copies of the MH100 GAL4 binding site and the Firefly luciferase gene. The cells were transfected with those plasmids and were treated with various PPAR ligands, and both Firefly and Renilla luciferase activities were measured using the Dual-Glo Luciferase Assay System (Promega, Madison, WI, USA) as described previously. […] GW1929 was purchased from Sigma-Aldrich (St. Louis, MO, USA).
(§2) For the undertaking of the comparison of the potency, efficacy, and selectivity of the five PPAR ligands (Figure 1A) against the PPAR subtypes, we evaluated their PPARα/δ/γ activation using three different methods: a cell-based transactivation assay, a coactivator recruitment assay, and a thermal stability assay, as we previously performed on three fibrates (namely, bezafibrate, fenofibric acid, and pemafibrate). The cell-based transactivation assay utilizing the Gal4–PPAR-LBD system is the most widely used method for the determination of PPAR activation by certain ligands, although their responses depend on the used cell types in which several coactivators with altered functions are differentially expressed.
(§3) Figure 1 LBD-mediated human PPARα/δ/γ transactivation by PPAR ligands. (A) Chemical structures of the five PPAR ligands used in this study. […] Data are presented as the mean ± standard error (SE) of three independent experiments with duplicate samples.

human PPARγ = target: T2, human PPARγ (Homo sapiens, UniProt P37231); experiment: Transactivation assay (GAL4–hPPARγ-LBD chimera, luciferase reporter, COS-7 cells); type: cell-based; conditions: for Emax: 100% = 1 µM GW1929, read-out: Efficacy, PPARγ transactivation (% of the maximal response); for EC50: GAL4–hPPARγ-LBD
T2 construct: expressed in transfected cells; host or cells: COS-7
T2 sequence (P37231 238-503 limits assumed): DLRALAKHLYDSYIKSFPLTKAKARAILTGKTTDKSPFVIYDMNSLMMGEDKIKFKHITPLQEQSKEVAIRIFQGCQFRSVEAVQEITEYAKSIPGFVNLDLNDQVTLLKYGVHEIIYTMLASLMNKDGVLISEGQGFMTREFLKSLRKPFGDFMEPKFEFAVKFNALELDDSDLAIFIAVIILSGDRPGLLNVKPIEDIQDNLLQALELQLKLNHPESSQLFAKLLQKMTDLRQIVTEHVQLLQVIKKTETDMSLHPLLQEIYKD
Description: as §1, §2, §3

human PPARδ = target: T3, human PPARδ (Homo sapiens, UniProt Q03181); experiment: Transactivation assay (GAL4–hPPARδ-LBD chimera, luciferase reporter, COS-7 cells); type: cell-based; conditions: for Emax: COS-7, read-out: Efficacy, PPARδ transactivation (% of the maximal response); for EC50: COS-7 cells, GAL4–hPPARδ-LBD
T3 construct: expressed in transfected cells; host or cells: COS-7
T3 sequence (Q03181 211-439 limits assumed): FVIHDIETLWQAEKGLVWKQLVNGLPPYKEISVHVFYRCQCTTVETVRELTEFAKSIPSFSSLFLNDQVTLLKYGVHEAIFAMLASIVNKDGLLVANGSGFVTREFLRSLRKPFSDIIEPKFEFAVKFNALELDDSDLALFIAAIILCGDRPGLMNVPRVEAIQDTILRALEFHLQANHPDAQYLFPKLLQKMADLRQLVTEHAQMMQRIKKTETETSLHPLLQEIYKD
Description: as §1, §2, §3

PPARδ-LBD [1] = target: T4, PPARδ-LBD (Homo sapiens, UniProt Q03181); experiment: TR-FRET SRC1 coactivator recruitment assay; type: biochemical; set-up: PPARδ-LBD (amino acids 170–441); made in house; host or cells: Rosetta (DE3) pLysS (E. coli); conditions: for EC50: TR-FRET, SRC1 peptide, read-out: EC50, SRC1 recruitment to PPARδ-LBD
T4 sequence (Q03181 170-441): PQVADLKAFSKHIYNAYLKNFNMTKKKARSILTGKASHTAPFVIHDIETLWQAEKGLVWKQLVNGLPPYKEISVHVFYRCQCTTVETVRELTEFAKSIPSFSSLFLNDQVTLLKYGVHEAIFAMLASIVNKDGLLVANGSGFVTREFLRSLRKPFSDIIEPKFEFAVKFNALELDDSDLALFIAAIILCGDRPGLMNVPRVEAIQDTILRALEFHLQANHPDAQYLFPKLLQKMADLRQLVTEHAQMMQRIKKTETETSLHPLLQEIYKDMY
Description: (§4) Subsequently, 5 µL of 4 nM Eu-W1024-labeled anti-6×His antibody/80 nM ULight-Streptavidin (PerkinElmer) was added to each well, and the microplate was incubated in the dark for 2 h, at room temperature. […] The nonlinear fitting and the calculation of the EC50 were performed using the Prism 9 software (GraphPad, San Diego, CA, USA).
(§5) The ligand-bound activated forms of PPARs are stabilized by associations with specific coactivators, thereby enabling the regulation of specific gene expression.
(§6) Figure 2 TR-FRET-based LBD-mediated human PPARα/δ/γ coactivator recruitment assay. […] Data are presented as the mean ± SE of three or four independent experiments with duplicate samples, and the calculated EC50 values are shown.

PPARδ-LBD [2] = target: T4, PPARδ-LBD; experiment: TR-FRET PGC1α coactivator recruitment assay; type: biochemical; set-up: PPARδ-LBD (amino acids 170–441); made in house; host or cells: Rosetta (DE3) pLysS (E. coli); conditions: for EC50: TR-FRET, PGC1α peptide, read-out: EC50, PGC1α recruitment to PPARδ-LBD
Description: as §4, §5, §6

| Emax (human PPARα) [%] | EC50 (human PPARα) [nM] | Emax (human PPARγ) [%] | EC50 (human PPARγ) [nM] | Emax (human PPARδ) [%] | EC50 (PPARδ-LBD [1]) [nM] | EC50 (PPARδ-LBD [2]) [nM] | EC50 (human PPARδ) [nM] | Efficacy, SRC1 recruitment to PPARδ-LBD (PPARδ-LBD [1]; 100% = 1 µM GW501516) [%] | Efficacy, PGC1α recruitment to PPARδ-LBD (PPARδ-LBD [2]; 100% = 1 µM GW501516) [%] | SMILES |
| --- | --- | --- | --- | --- | --- | --- | --- | --- | --- | --- |
| 38.5 | 388 | 38.5 | 2120 | 14.8 | – | – | – | – | – | CSc1ccc(C(=O)/C=C/c2cc(C)c(OC(C)(C)C(=O)O)c(C)c2)cc1 [elafibranor] |
| 13.3 | 4660 | 24.9 | 572 | 13.3 | 4440 | 3860 | 398 | – | – | O=C(O)CCCc1cc2cc(Cl)ccc2n1S(=O)(=O)c1ccc2ncsc2c1 [lanifibranor] |
| 56.4 | 190 | 89.4 | 311 | 6 | > 100000 | > 100000 | > 10000 | – | – | CCO[C@@H](Cc1ccc(OCCn2c(C)ccc2-c2ccc(SC)cc2)cc1)C(=O)O [saroglitazar] |
| 41 | 1640 | 58.5 | 3530 | 99.3 | 111 | 30.7 | 20.2 | 83.0 | 124 | CCO[C@H](COc1ccc(C(F)(F)F)cc1)CSc1ccc(OCC(=O)O)c(C)c1 [seladelpar] |
